Experimental data taken from the supplement of paper PMC7214452.
Counter-ions that a name gives are not always drawn.

What was measured:
Test in all cases: normalized area under the dose-response curve (viability relative to DMSO control) (fraction); higher = less sensitive (more viable cells)
Settings in all cases: exposure time not given
[1] = system: SU-DHL1 (cancer type: TCL)
Description: (§1)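 25 myeloma and 15 non-Hodgkin lymphoma cell lines were exposed to each of 76 drugs as 7-point log dilutions (0.01 nM–10 µM) in duplicate. Viability was read with CellTiter-Glo and normalised to DMSO (0.1%) and staurosporine (10 µM) plate controls. Normalised AUC was calculated by the trapezoidal method relative to the negative control.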

[2] = system: OCI-MY7 (cancer type: MM)
Description: as §1

LP1 (cancer type: MM) = system: LP1 (cancer type: MM)
Description: as §1

KMS34 (cancer type: MM) = system: KMS34 (cancer type: MM)
Description: as §1

OPM2 (cancer type: MM) = system: OPM2 (cancer type: MM)
Description: as §1

[3] = system: OCI-LY1 (cancer type: DLBCL)
Description: as §1

AMO1 (cancer type: MM) = system: AMO1 (cancer type: MM)
Description: as §1

[4] = system: OCI-LY19 (cancer type: DLBCL)
Description: as §1

[5] = system: HuT 78 (cancer type: TCL)
Description: as §1

[6] = system: OCI-MY5/Vec (cancer type: MM)
Description: as §1

KMS18 (cancer type: MM) = system: KMS18 (cancer type: MM)
Description: as §1

[7] = system: SU-DHL6 (cancer type: DLBCL)
Description: as §1

[8] = system: OCI-MY5 (cancer type: MM)
Description: as §1

SKMM2 (cancer type: MM) = system: SKMM2 (cancer type: MM)
Description: as §1

[9] = system: RPMI 8226 (cancer type: MM)
Description: as §1

Se-Ax (cancer type: TCL) = system: Se-Ax (cancer type: TCL)
Description: as §1

[10] = system: KMS12PE (cancer type: MM)
Description: as §1

[11] = system: NCI-H929 (cancer type: MM)
Description: as §1

[12] = system: Karpas-299 (cancer type: TCL)
Description: as §1

FR4 (cancer type: MM) = system: FR4 (cancer type: MM)
Description: as §1

[13] = system: SR-786 (cancer type: TCL)
Description: as §1

U266 (cancer type: MM) = system: U266 (cancer type: MM)
Description: as §1

XG2 (cancer type: MM) = system: XG2 (cancer type: MM)
Description: as §1

[14] = system: JVM2 (cancer type: Mantle)
Description: as §1

[15] = system: OCI-MY5/CRBN (cancer type: MM)
Description: as §1

MM1.R (cancer type: MM) = system: MM1.R (cancer type: MM)
Description: as §1

[16] = system: Granta-519 (cancer type: Mantle)
Description: as §1

[17] = system: JeKo-1 (cancer type: Mantle)
Description: as §1

EJM (cancer type: MM) = system: EJM (cancer type: MM)
Description: as §1

[18] = system: KMS28BM (cancer type: MM)
Description: as §1

[19] = system: KMS28PE (cancer type: MM)
Description: as §1

KMS26 (cancer type: MM) = system: KMS26 (cancer type: MM)
Description: as §1

JJN3 (cancer type: MM) = system: JJN3 (cancer type: MM)
Description: as §1

[20] = system: SU-DHL2 (cancer type: DLBCL)
Description: as §1

L363 (cancer type: MM) = system: L363 (cancer type: MM)
Description: as §1

My-La (cancer type: TCL) = system: My-La (cancer type: TCL)
Description: as §1

[21] = system: OCI-LY3 (cancer type: DLBCL)
Description: as §1

MM1.S (cancer type: MM) = system: MM1.S (cancer type: MM)
Description: as §1

KMS11 (cancer type: MM) = system: KMS11 (cancer type: MM)
Description: as §1

[22] = system: Mino (cancer type: Mantle)
Description: as §1

Row | SMILES | normalized area under the dose-response curve [1] | normalized area under the dose-response curve [2] | normalized area under the dose-response curve (LP1 (cancer type: MM)) | normalized area under the dose-response curve (KMS34 (cancer type: MM)) | normalized area under the dose-response curve (OPM2 (cancer type: MM)) | normalized area under the dose-response curve [3] | normalized area under the dose-response curve (AMO1 (cancer type: MM)) | normalized area under the dose-response curve [4] | normalized area under the dose-response curve [5] | normalized area under the dose-response curve [6] | normalized area under the dose-response curve (KMS18 (cancer type: MM)) | normalized area under the dose-response curve [7] | normalized area under the dose-response curve [8] | normalized area under the dose-response curve (SKMM2 (cancer type: MM)) | normalized area under the dose-response curve [9] | normalized area under the dose-response curve (Se-Ax (cancer type: TCL)) | normalized area under the dose-response curve [10] | normalized area under the dose-response curve [11] | normalized area under the dose-response curve [12] | normalized area under the dose-response curve (FR4 (cancer type: MM)) | normalized area under the dose-response curve [13] | normalized area under the dose-response curve (U266 (cancer type: MM)) | normalized area under the dose-response curve (XG2 (cancer type: MM)) | normalized area under the dose-response curve [14] | normalized area under the dose-response curve [15] | normalized area under the dose-response curve (MM1.R (cancer type: MM)) | normalized area under the dose-response curve [16] | normalized area under the dose-response curve [17] | normalized area under the dose-response curve (EJM (cancer type: MM)) | normalized area under the dose-response curve [18] | normalized area under the dose-response curve [19] | normalized area under the dose-response curve (KMS26 (cancer type: MM)) | normalized area under the dose-response curve (JJN3 (cancer type: MM)) | normalized area under the dose-response curve [20] | normalized area under the dose-response curve (L363 (cancer type: MM)) | normalized area under the dose-response curve (My-La (cancer type: TCL)) | normalized area under the dose-response curve [21] | normalized area under the dose-response curve (MM1.S (cancer type: MM)) | normalized area under the dose-response curve (KMS11 (cancer type: MM)) | normalized area under the dose-response curve [22]
1 | Cc1[nH]c2ccccc2c1CCNCc1ccc(/C=C/C(=O)NO)cc1 [Panobinostat] | 0.23 | 0.47 | 0.592 | 0.333 | 0.812 | 0.167 | 0.444 | 0.36 | 0.249 | 0.173 | 0.618 | 0.501 | 0.297 | 0.698 | 0.682 | 0.244 | 0.42 | 0.16 | 0.187 | 0.594 | 0.374 | 0.389 | 0.483 | 0.347 | 0.13 | 0.35 | 0.424 | 0.284 | 0.188 | 0.567 | 0.52 | 0.454 | 0.56 | 0.286 | 0.613 | 0.422 | 0.322 | 0.25 | 0.659 | 0.303
2 | Cc1ccc(Nc2nccc(N(C)c3ccc4c(C)n(C)nc4c3)n2)cc1S(N)(=O)=O [Pazopanib hydrochloride] | 0.833 | 0.78 | 0.602 | 0.347 | 0.653 | 0.906 | 0.798 | 0.859 | 0.795 | 0.764 | 0.732 | 0.99 | 0.667 | 0.86 | 0.827 | 0.732 | 0.82 | 0.77 | 0.829 | 0.759 | 0.789 | 0.681 | 0.876 | 0.721 | 0.855 | 0.77 | 0.899 | 0.881 | 0.861 | 0.921 | 0.796 | 0.848 | 0.628 | 0.931 | 0.666 | 0.879 | 1 | 0.79 | 0.713 | 0.939
3 | Nc1cccc2c1C(=O)N(C1CCC(=O)NC1=O)C2=O (stereo not given) [Pomalidomide] | 0.846 | 0.9 | 0.871 | 0.917 | 0.963 | 0.964 | 0.879 | 0.854 | 0.986 | 0.897 | 0.886 | 0.989 | 0.9 | 0.973 | 0.959 | 0.767 | 0.9 | 0.78 | 0.914 | 0.949 | 0.947 | 0.96 | 0.77 | 0.889 | 0.908 | 0.76 | 0.87 | 0.843 | 0.879 | 0.925 | 0.962 | 0.86 | 0.994 | 0.917 | 0.887 | 0.875 | 0.979 | 0.74 | 0.912 | 0.884
4 | Cc1ccc(C(=O)Nc2ccc(CN3CCN(C)CC3)c(C(F)(F)F)c2)cc1C#Cc1cnc2cccnn12 [Ponatinib] | 0.239 | 0.48 | 0.408 | 0.298 | 0.419 | 0.678 | 0.431 | 0.726 | 0.527 | 0.613 | 0.479 | 0.79 | 0.361 | 0.55 | 0.237 | 0.417 | 0.48 | 0.52 | 0.719 | 0.451 | 0.673 | 0.381 | 0.454 | 0.44 | 0.665 | 0.5 | 0.755 | 0.52 | 0.427 | 0.551 | 0.501 | 0.593 | 0.344 | 0.797 | 0.461 | 0.615 | 0.859 | 0.57 | 0.458 | 0.501
5 | CC(C)(C)c1cc(NC(=O)Nc2ccc(-c3cn4c(n3)sc3cc(OCCN5CCOCC5)ccc34)cc2)no1 [Quizartinib] | 0.686 | 0.91 | 0.766 | 0.439 | 0.531 | 0.987 | 0.837 | 0.923 | 0.865 | 0.894 | 0.737 | 0.907 | 0.65 | 0.973 | 0.955 | 0.825 | 0.87 | 0.88 | 0.93 | 0.923 | 0.869 | 0.867 | 0.763 | 0.764 | 0.917 | 0.69 | 0.941 | 0.98 | 0.861 | 0.838 | 0.898 | 0.934 | 0.631 | 0.956 | 0.751 | 0.917 | 0.959 | 0.82 | 0.828 | 0.863
6 | O=C(c1ccc(OCCN2CCCCC2)cc1)c1c(-c2ccc(O)cc2)sc2cc(O)ccc12 [Raloxifene] | 0.677 | 0.92 | 0.731 | 0.657 | 0.865 | 0.932 | 0.704 | 0.914 | 0.786 | 0.787 | 0.848 | 0.856 | 0.744 | 0.953 | 0.86 | 0.854 | 0.91 | 0.91 | 0.945 | 0.896 | 0.78 | 0.814 | 0.746 | 0.884 | 0.857 | 0.89 | 0.939 | 0.939 | 0.859 | 0.889 | 0.849 | 0.869 | 0.821 | 0.919 | 0.829 | 0.974 | 0.945 | 0.85 | 0.866 | 1.01
7 | CNC(=O)c1cc(Oc2ccc(NC(=O)Nc3ccc(Cl)c(C(F)(F)F)c3)c(F)c2)ccn1 [Regorafenib] | 0.57 | 0.58 | 0.558 | 0.35 | 0.594 | 1 | 0.549 | 0.96 | 0.697 | 0.848 | 0.553 | 0.916 | 0.468 | 0.636 | 0.543 | 0.684 | 0.62 | 0.56 | 0.892 | 0.642 | 0.91 | 0.48 | 0.481 | 0.715 | 0.927 | 0.53 | 0.901 | 0.879 | 0.589 | 0.565 | 0.695 | 0.844 | 0.436 | 0.955 | 0.54 | 0.84 | 0.964 | 0.52 | 0.546 | 0.899
8 | C/C=C1\NC(=O)[C@H]2CSSCC/C=C/[C@H](CC(=O)N[C@H](C(C)C)C(=O)N2)OC(=O)[C@H](C(C)C)NC1=O [Romidepsin] | 0.113 | 0.5 | 0.447 | 0.206 | 0.445 | 0.118 | 0.224 | 0.198 | 0.0814 | 0.143 | 0.291 | 0.385 | 0.13 | 0.511 | 0.433 | 0.107 | 0.24 | 0.09 | 0.118 | 0.152 | 0.148 | 0.21 | 0.15 | 0.148 | 0.0857 | 0.33 | 0.209 | 0.174 | 0.105 | 0.271 | 0.262 | 0.257 | 0.324 | 0.188 | 0.401 | 0.109 | 0.203 | 0.23 | 0.382 | 0.178
